From ChEMBL document CHEMBL1201862, “PubChem BioAssay data set” (2004)
Calls of active or inactive are those of the source.

Assays:
INS1 = test: INS-1E survival protection against cytokine death – cell-based, luminescence, retest, dose response (AID 449756); format: functional; details: Rattus norvegicus;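 note: cell death triggered by IL-1 beta plus TNF-alpha plus IFN-gamma mixture; protective hits raise ATP signal compared with cytokine alone wells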
[1] = target: T1, High affinity choline transporter 1 (Homo sapiens, UniProt Q9GZV3); test: human choline transporter blockers, potency – cell-based, 5-point CRC, membrane potential dye, dose response (AID 504840); format: functional
T1 sequence (Q9GZV3 whole entry): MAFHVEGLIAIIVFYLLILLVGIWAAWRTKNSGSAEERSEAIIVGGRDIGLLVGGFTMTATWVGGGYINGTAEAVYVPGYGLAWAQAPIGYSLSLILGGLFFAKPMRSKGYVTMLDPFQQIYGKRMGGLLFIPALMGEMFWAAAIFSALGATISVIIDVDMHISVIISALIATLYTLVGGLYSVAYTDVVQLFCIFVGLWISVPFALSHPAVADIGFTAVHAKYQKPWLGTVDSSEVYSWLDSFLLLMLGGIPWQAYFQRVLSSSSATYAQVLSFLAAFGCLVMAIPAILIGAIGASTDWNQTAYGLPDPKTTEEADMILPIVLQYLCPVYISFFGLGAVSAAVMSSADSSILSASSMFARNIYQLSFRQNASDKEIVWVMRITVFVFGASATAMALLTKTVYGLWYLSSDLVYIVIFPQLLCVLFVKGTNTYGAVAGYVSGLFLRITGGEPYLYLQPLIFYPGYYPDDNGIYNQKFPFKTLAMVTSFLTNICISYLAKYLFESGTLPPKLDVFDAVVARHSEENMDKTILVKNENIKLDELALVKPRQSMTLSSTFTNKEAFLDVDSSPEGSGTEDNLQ

[2] = reduction of Shn3 3'UTR-driven luciferase in osteoblasts – cell-based, Clone20 osteoblasts, firefly luciferase, cherry-picked, dose response (AID 624132); format: functional;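 note: firefly luciferase luminescence from reporter carrying the Shn3 3'UTR in osteoblasts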
[3] = non-specific 3'UTR reporter inhibition in Clone20-Shn3RL – cell-based, Renilla luciferase, cherry-picked, counter-screen for Shn3 inhibitor project, dose response (AID 624133); format: functional
[4] = loss of viability in HepG2 cells – cell-based, CellTiter-Glo, cherry-picked, cytotoxicity control for Shn3 inhibitor project, dose response (AID 624134); format: functional
P388 = test: cells; format: functional; details: Mus musculus
SN12K1 = test: cells; format: functional; details: Homo sapiens
P388/ADR = test: cells; format: functional; details: Mus musculus
[5] = HIV-1 AD8 envelope cell-cell fusion blockers – cherry-pick, dose response (AID 652062); format: functional, cell-based;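 note: luciferase signal from cell-cell fusion driven by HIV-1 clade B AD8 Env; potency is for inhibitors of fusion seen as a drop in luminescence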
[6] = blockers of HIV-1 envelope-mediated cell-cell fusion – cherry-pick, dose response (AID 652057); format: functional, cell-based
[7] = viability of PTEN-deleted HCT116 cells – cell-based, HCT116 PTEN knockout, dose response (AID 1047); format: functional;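 note: HCT116 colon tumor cells with PTEN knocked out; cells exposed to compound for 60 hours before readout; potency for loss of cell viability measured by luminescence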
[8] = viability of HCT116 lacking mutant beta-catenin – cell-based, human colon tumor, dose response (AID 1045); format: functional;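 note: HCT116 colon tumor cells with beta catenin knocked out; cells exposed to compound for 60 hours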

| Structure (SMILES) | GI50 (P388) | GI50 (SN12K1) | GI50 (P388/ADR) | further results |
| --- | --- | --- | --- | --- |
| COc1ccc(C2/C=C\CN(C(=O)c3ccccc3)[C@H](Cc3ccccc3)C(=O)N2Cc2ccc(F)cc2)cc1 (stereo partly drawn) |  |  |  | AC50 (INS1): 7.46 µM (active) |
| COc1ccc(-n2nnnc2CNC(=O)c2ccc3ccccc3c2)cc1 |  |  |  | IC50 [1]: 14.5 µM (active) |
| CC1CC(C)(C)CC2(C1)NC(=O)N(CC(=O)N1CCN(Cc3ccc(C#N)cc3)CC1)C2=O (stereo not drawn) |  |  |  | AC50 [2]: 1.47 µM (active); AC50 [3]: 0.65 µM (active); AC50 [4]: 2.54 µM (active) |
| Cc1cc(C)cc(NS(=O)(=O)c2cnc(Cl)c(Cl)c2)c1 |  |  |  | IC50 [1]: 16.6 µM (active) |
| COc1ccc2c(c1)CCCc1cn[nH]c1-2 | > 100 µM (inactive) | > 100 µM (inactive) | > 100 µM (inactive) |  |
| O=C1C2=C(C3=NCCc4c[nH]c1c43)C1(C=C(Br)C(O)C(Br)=C1)CCN2 (stereo not drawn) | 1.25 µM (inactive) | 2.99 µM (inactive) | 1.81 µM (inactive) |  |
| CNC(=O)SCC(NC(=O)CCC(N)C(=O)O)C(=O)NCC(=O)O (stereo not drawn) | 27.5 µM (inactive) | > 59.2 µM (inactive) | 26.4 µM (inactive) |  |
| CC(C)=CCc1c(C)cc2cc3c(c(O)c2c1O)C(=O)C=C(O)C3(CC=C(C)C)C/C=C(\C)CO (stereo not drawn) | 23.5 µM (inactive) | 35.2 µM (inactive) | 20.1 µM (inactive) |  |
| Cc1c(N)nc([C@H](CC(N)=O)NC[C@H](N)C(N)=O)nc1C(=O)N[C@H](C(=O)N[C@H](C)[C@@H](O)[C@H](C)C(=O)N[C@H](C(=O)NCCc1nc(-c2nc(C(=O)NCCC[S+](C)C)cs2)cs1)[C@@H](C)O)C(OC1OC(CO)C(O)C(O)C1OC1OC(CO)C(O)C(OC(N)=O)C1O)c1c[nH]cn1 (stereo partly drawn) | 2.11 µM (inactive) | 0.19 µM (active) | 3.49 µM (inactive) |  |
| FC(F)(F)C1=NC(=NNc2nnc(-c3ccccc3)c(-c3ccccc3)n2)N=C(C(F)(F)F)C1 | 0.891 µM (active) | 10.1 µM (inactive) | 11.1 µM (inactive) |  |
| COc1cc(/C=C/C(=O)O)ccc1C(=O)O/C=C/c1ccccc1 | 25.6 µM (inactive) | > 100 µM (inactive) | 14.1 µM (inactive) |  |
| COc1ccc(S(=O)(=O)Nc2ccc3c(c2)CC(=O)N([C@H](C)CO)C[C@H](C)[C@H](CN(C)S(=O)(=O)c2cccs2)O3)cc1 |  |  |  | AC50 [5]: 3.88 µM (active); AC50 [6]: 0.509 µM (active) |
| CC1[C@@]2(CCC(C)(C)O2)O[C@@H]2C=C3C4CCC5Cc6nc7c(nc6C[C@@]5(C)C4C[C@H](O)[C@@]3(C)[C@]12O)CC1CCC2C3=C[C@H]4O[C@@]5(O[C@@](C)(CO)C[C@@H]5O)C(C)[C@@]4(O)[C@]3(C)[C@@H](O)CC2[C@]1(C)C7 (stereo partly drawn) | 0.000365 µM (active) | 0.000365 µM (active) | 0.00112 µM (active) |  |
| CC(=O)/C(=N\Nc1ccc(Cl)cc1Cl)Sc1nnc(-c2ccccc2)n1-c1ccccc1 |  |  |  | EC50 [7]: 9.61 µM (active); EC50 [8]: 8.46 µM (active) |
| OCC1CCC(n2cnc3c(O)ncnc32)O1 (stereo not drawn) | > 100 µM (inactive) | > 100 µM (inactive) | > 100 µM (inactive) |  |
| CC(C)Sc1sc(C(=O)O)c(-c2ccc(Cl)cc2)c1C#N |  |  |  | IC50 [1]: 13.5 µM (active) |
